Among the data in US12679836B2, “4H-pyrrolo[3,2-c]pyridin-4-one compounds” (Bayer Aktiengesellschaft, priority 2019, dated 2026) are GI50 values, retold here.

Experiment [1] concerns the target Ba/F3-ERBB2-A775_G776insYVMA cells (Homo sapiens, UniProt P04626, DUP772-775, cells depend on it). Nature of the experiment: Ba/F3 cell survival assay, ERBB2 A775_G776insYVMA. As to conditions: without IL-3, without EGF, 48 h; read-out: BA/F3 (ERBB2 A775_G776 insYVMA) IC50. The format is cell-based. The protocol: (§1) 293T cells from ATCC were transfected with pBABEpuro expression constructs for mutant EGFR (V769_D770insASV, D770_N771insNPG, N771_P772insH, H773_V774insNPH, E746_A750del, L858R, D770_N771insSVD C797S, E746_A750del C797S, L858R C797S, L861Q) or mutant ERBB2 (A775_G776insYVMA) and pCL-Eco packaging vector using Fugene-6 transfection reagent from Promega. Plates were incubated at 37° C. for 48 h. Retrovirus was harvested by filtering the media supernatant through a 0.45 μm filter.
(§2) Ba/F3 cells purchased from DSMZ were grown in RPMI+10% FBS+10 ng/mL IL-3 and infected with filtered retroviral supernatant at a 1:2 dilution. Polybrene was added to a concentration of 8 μg/mL, plates were spun for 90 min, and incubated overnight at 37° C. 2 μg/mL puromycin was added to the infected cells 24 h after infection and cells were continually grown in the presence of puromycin and 10 ng/mL IL-3. Following stably expressing Ba/F3 cell lines were generated: Ba/F3-EGFR-V769_D770insASV, Ba/F3-EGFR-D770_N771insNPG, Ba/F3-EGFR-N771_P772insH, Ba/F3-EGFR-H773_V774insNPH, Ba/F3-EGFR-E746_A750del, Ba/F3-EGFR-L858R, Ba/F3-EGFR-D770_N771 insSVD C797S, Ba/F3-EGFR-E746_A750del C797S, Ba/F3-EGFR-L858R C797S, Ba/F3-EGFR L861Q and Ba/F3-ERBB2-A775_G776insYVMA (Ba/F3-vector-control).
(§3) For cell survival assays, Ba/F3 cells were grown to a density of 1-2 million cells per mL, spun down and resuspended in media without IL-3, and replated at a concentration 200,000-500,000 cells per mL. The cells ectopically expressing WT EGFR plated with 10 ng/mL Millipore Culture grade EGF and Ba/F3 cells containing mutant EGFR or Mutant ERBB2 were cultivated without EGF. The cells ectopically expressing pBABEpuro empty vector were plated with 10 ng/mL IL-3.
(§4) 2 days later, cells were plated in 50 μL in a 384 well plate at a concentration of 4000 cells per well for cells assayed in the absence of IL-3 and 2000 cells per well for cells assayed in the presence of IL-3. 100 nL of compound was added to each well using a 100 nL pin head, and plates were incubated at 37° C. for 48 h.
(§5) Cell viability was measured by adding 20 μL of Cell Titer-Glo Luminescent Cell Viability Reagent diluted 1:3 in PBS. Plates were sealed with Perkin Elmer Top-Seal, inverted several times to mix, and immediately centrifuged at 1000 rpm for 2 min. Plates were incubated in low light conditions for 8-10 min and luminescence was measured.

The target in experiment [2] is Ba/F3-EGFR-D770_N771 insSVD C797S cells (Homo sapiens, UniProt P00533, DUP768-770/C797S, cells depend on it). Put plainly: Ba/F3 cell survival assay, EGFR D770_N771insSVD C797S. As to conditions: without IL-3, without EGF, 48 h; read-out: BA/F3 (EGFR 0770_N771 insSVD C797S) IC50. The format is cell-based. How it is done:
as §1, §2, §3, §4, §5

Sequence of Ba/F3-ERBB2-A775_G776insYVMA cells (P04626 with tags, fused parts or gaps DUP772-775): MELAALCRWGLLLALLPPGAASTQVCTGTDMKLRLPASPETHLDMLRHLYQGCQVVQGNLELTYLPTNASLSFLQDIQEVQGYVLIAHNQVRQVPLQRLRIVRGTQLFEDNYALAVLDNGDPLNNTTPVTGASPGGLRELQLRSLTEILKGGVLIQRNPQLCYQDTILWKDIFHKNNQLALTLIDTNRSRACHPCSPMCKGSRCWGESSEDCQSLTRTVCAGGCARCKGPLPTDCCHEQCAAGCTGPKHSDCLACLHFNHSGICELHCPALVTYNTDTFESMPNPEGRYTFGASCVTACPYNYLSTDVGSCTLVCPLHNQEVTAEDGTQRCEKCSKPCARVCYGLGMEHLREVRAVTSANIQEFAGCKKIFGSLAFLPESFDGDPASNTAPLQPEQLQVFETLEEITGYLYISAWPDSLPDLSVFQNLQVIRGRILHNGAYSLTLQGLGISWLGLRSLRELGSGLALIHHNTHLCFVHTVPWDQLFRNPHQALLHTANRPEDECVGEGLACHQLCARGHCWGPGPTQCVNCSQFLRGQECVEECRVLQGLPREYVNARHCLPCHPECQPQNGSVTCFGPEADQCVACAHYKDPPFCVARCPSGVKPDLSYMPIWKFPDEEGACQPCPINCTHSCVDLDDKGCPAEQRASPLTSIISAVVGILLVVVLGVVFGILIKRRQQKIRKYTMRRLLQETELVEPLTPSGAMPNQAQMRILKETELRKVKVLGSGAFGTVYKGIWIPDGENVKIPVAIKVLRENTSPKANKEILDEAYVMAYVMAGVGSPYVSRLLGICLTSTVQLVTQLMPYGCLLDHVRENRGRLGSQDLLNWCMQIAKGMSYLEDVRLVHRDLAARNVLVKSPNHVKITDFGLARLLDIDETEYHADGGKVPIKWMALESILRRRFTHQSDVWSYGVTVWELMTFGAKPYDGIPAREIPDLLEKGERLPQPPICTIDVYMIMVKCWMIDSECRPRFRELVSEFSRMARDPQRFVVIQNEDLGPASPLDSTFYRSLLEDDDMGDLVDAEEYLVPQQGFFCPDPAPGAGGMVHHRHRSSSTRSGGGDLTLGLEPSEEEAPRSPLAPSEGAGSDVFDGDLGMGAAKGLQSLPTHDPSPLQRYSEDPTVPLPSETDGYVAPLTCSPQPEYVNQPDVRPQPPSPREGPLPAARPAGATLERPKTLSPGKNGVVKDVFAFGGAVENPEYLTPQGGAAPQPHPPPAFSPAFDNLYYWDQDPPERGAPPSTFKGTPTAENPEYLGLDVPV
Sequence of Ba/F3-EGFR-D770_N771 insSVD C797S cells (P00533 with tags, fused parts or gaps DUP768-770/C797S): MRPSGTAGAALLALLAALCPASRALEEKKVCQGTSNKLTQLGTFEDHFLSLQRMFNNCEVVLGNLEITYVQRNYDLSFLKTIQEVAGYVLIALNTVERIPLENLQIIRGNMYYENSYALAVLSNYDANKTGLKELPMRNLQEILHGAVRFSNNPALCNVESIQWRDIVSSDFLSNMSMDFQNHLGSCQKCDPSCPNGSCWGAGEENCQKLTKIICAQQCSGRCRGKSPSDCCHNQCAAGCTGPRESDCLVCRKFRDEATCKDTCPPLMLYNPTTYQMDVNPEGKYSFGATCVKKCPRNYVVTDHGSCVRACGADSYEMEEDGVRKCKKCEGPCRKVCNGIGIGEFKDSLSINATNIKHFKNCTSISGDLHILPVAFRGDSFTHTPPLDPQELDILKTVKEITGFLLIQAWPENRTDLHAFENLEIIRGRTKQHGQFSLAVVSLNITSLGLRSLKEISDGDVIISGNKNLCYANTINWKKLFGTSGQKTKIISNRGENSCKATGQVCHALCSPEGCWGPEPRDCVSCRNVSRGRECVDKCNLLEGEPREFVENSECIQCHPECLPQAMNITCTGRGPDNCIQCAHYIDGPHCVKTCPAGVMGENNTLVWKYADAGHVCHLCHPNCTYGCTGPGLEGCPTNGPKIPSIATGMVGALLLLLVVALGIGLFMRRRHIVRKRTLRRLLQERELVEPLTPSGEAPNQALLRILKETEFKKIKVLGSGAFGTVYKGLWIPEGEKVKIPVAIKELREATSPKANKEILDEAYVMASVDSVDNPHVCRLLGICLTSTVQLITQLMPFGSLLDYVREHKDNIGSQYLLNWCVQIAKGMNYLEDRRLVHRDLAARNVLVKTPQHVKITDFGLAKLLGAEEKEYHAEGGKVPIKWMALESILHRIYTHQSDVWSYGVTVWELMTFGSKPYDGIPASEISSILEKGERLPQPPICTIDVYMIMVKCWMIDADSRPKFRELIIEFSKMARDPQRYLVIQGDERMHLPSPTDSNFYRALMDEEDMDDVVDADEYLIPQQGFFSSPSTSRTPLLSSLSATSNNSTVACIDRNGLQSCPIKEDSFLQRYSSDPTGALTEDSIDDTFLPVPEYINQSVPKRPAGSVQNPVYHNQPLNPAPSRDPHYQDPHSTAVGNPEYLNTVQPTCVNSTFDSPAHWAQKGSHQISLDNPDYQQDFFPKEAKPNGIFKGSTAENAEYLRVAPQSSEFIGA

For the molecule `COc1c(Cl)cccc1Nc1c(-c2ccncc2OC[C@@H]2COCCO2)[nH]c2c1C(=O)NCC2` (single isomer, unassigned) [Example 2], the figures for the GI50 in experiment [1] and in experiment [2] were 8.31 nM and 8.22 nM, respectively.
On to `COc1c(F)cccc1Nc1c(-c2ccncc2OCC2COCCO2)[nH]c2c1C(=O)NCC2` (single isomer, unassigned) [Example 5, 2-{3-[(1,4-dioxan-2-yl)methoxy]pyridin-4-yl}-3-(3-fluoro-2-methoxyanilino)-1,5,6,7-tetrahydro-4H-pyrrolo[3,2-c]pyridin-4-one], for which, in experiment [2], the GI50 turned out to be 37 nM.
`O=C1NCCc2[nH]c(-c3ccncc3OCC3COCCO3)c(Nc3cccc(Cl)c3Cl)c21` (single isomer, unassigned) [Example 8, 3-(2,3-dichloroanilino)-2-{3-[(1,4-dioxan-2-yl)methoxy]pyridin-4-yl}-1,5,6,7-tetrahydro-4H-pyrrolo[3,2-c]pyridin-4-one]: the GI50 in experiment [1] worked out at 13.1 nM; in experiment [2], 14.6 nM.
On to `COc1c(F)cccc1Nc1c(-c2ccncc2OCC2CN(C)CCO2)[nH]c2c1C(=O)NCC2` (single isomer, unassigned) [Example 14, 3-(3-fluoro-2-methoxyanilino)-2-{3-[(4-methylmorpholin-2-yl)methoxy]pyridin-4-yl}-1,5,6,7-tetrahydro-4H-pyrrolo[3,2-c]pyridin-4-one], for which the results for the GI50 in experiment [1] and in experiment [2] were 13.6 nM and 24.9 nM, respectively.
As to `COc1c(Cl)cccc1Nc1c(-c2ccncc2OCC2COC(C)(C)CO2)[nH]c2c1C(=O)NCC2` (single isomer, unassigned) [Example 32, 3-(3-chloro-2-methoxyanilino)-2-{3-[(5,5-dimethyl-1,4-dioxan-2-yl)methoxy]pyridin-4-yl}-1,5,6,7-tetrahydro-4H-pyrrolo[3,2-c]pyridin-4-one], the GI50 in experiment [1] was found to be 16.7 nM; in experiment [2], 15.8 nM.
With `Cc1c(Cl)cccc1Nc1c(-c2ccncc2OCC2COC(C)(C)CO2)[nH]c2c1C(=O)NCC2` (single isomer, unassigned) [Example 46, 3-(3-chloro-2-methyl-anilino)-2-[3-[(5,5-dimethyl-1,4-dioxan-2-yl)methoxy]-4-pyridyl]-1,5,6,7-tetrahydropyrrolo[3,2-c]pyridin-4-one], the GI50 in experiment [1] amounted to 11 nM.
For the molecule `Cc1c(F)cccc1Nc1c(-c2ccncc2OCC2COCCO2)[nH]c2c1C(=O)NCC2` (single isomer, unassigned) [Example 48, 2-[3-(1,4-dioxan-2-ylmethoxy)-4-pyridyl]-3-(3-fluoro-2-methyl-anilino)-1,5,6,7-tetrahydropyrrolo[3,2-c]pyridin-4-one], the GI50 in experiment [1] was found to be 39.8 nM.
Take `Cc1c(Cl)cccc1Nc1c(-c2ccncc2OC[C@H]2COCCO2)[nH]c2c1C(=O)NCC2` (single isomer, unassigned) [Example 50]: the GI50 in experiment [1] is 10.3 nM; in experiment [2], 26.7 nM.
Take `COc1c(F)cccc1Nc1c(-c2ccncc2OC[C@@H]2COCCN2C)[nH]c2c1C(=O)NCC2` [Example 20, 3-(3-fluoro-2-methoxyanilino)-2-(3-{[(3S)-4-methylmorpholin-3-yl]methoxy}pyridin-4-yl)-1,5,6,7-tetrahydro-4H-pyrrolo[3,2-c]pyridin-4-one]: the GI50 came to 23.5 nM in experiment [1] and 12.2 nM in experiment [2].
As for `COc1c(Cl)cccc1Nc1c(-c2ccncc2OC[C@@H]2COCCN2C)[nH]c2c1C(=O)NCC2` [Example 21, 3-(3-chloro-2-methoxyanilino)-2-(3-{[(3S)-4-methylmorpholin-3-yl]methoxy}pyridin-4-yl)-1,5,6,7-tetrahydro-4H-pyrrolo[3,2-c]pyridin-4-one], the GI50 in experiment [1] is 13.4 nM; in experiment [2] it was 7.84 nM.
As for `Cc1c(Cl)cccc1Nc1c(-c2ccncc2OC[C@@H]2CN(C)CCO2)[nH]c2c1C(=O)NCC2` [Example 42, 3-(3-chloro-2-methylanilino)-2-(3-{[(2S)-4-methylmorpholin-2-yl]methoxy}pyridin-4-yl)-1,5,6,7-tetrahydro-4H-pyrrolo[3,2-c]pyridin-4-one], the GI50 in experiment [1] is 13.2 nM; in experiment [2] it was 19.3 nM.
Consider `CCc1c(Cl)cccc1Nc1c(-c2ccncc2OC[C@@H]2CN(C)CCO2)[nH]c2c1C(=O)NCC2` [Example 56, 3-(3-chloro-2-ethylanilino)-2-(3-{[(2S)-4-methylmorpholin-2-yl]methoxy}pyridin-4-yl)-1,5,6,7-tetrahydro-4H-pyrrolo[3,2-c]pyridin-4-one], for which the values for the GI50 in experiment [1] and in experiment [2] were 13.5 nM and 14 nM, respectively.
